The values that follow come from PMC9481570, “A small molecule antagonist of SMN disrupts the interaction between SMN and RNAP II” (Nature Communications, 2022).

“And” between values parts separate entries of the source, which are not always exact repeats. Equal entries are not always repeated.

What all share (assay): Affinity-purification and mass spectrometry (AP-MS) chemical proteomics, all proteins;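 as to Difference: 200 µM free competitor with 20 µM biotin probe overnight in lysate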
What all share (format): binding

The target of experiment [1] is T1, proteins displaced from immobilized biotin-Cmpd 1 pulldowns (U2OS cell lysate) (Homo sapiens, UniProt Q7Z2W9).
T1 construct: endogenous in cells; host or cells: U2OS
The following applies: GN=MRPL21 (Q7Z2W9).

Experiment [2] deals with T2, proteins displaced from immobilized biotin-Cmpd 1 pulldowns (U2OS cell lysate) (Homo sapiens, UniProt P06733).
T2 construct: endogenous in cells; host or cells: U2OS
To be noted: GN=ENO1 (P06733).

Experiment [3] concerns the target T3, proteins displaced from immobilized biotin-Cmpd 1 pulldowns (U2OS cell lysate) (Homo sapiens, UniProt Q6UWP8).
T3 construct: endogenous in cells; host or cells: U2OS
The following applies: GN=SBSN (Q6UWP8).

Experiment [4] concerns the target T4, proteins displaced from immobilized biotin-Cmpd 1 pulldowns (U2OS cell lysate) (Homo sapiens, UniProt P05089).
T4 construct: endogenous in cells; host or cells: U2OS
The following applies: GN=ARG1 (P05089).

Experiment [5] addresses T5, proteins displaced from immobilized biotin-Cmpd 1 pulldowns (U2OS cell lysate) (Homo sapiens, UniProt Q04837).
T5 construct: endogenous in cells; host or cells: U2OS
To be noted: GN=SSBP1 (Q04837).

The target of experiment [6] is T6, proteins displaced from immobilized biotin-Cmpd 1 pulldowns (U2OS cell lysate) (Homo sapiens, UniProt Q9NZM5).
T6 construct: endogenous in cells; host or cells: U2OS
The following applies: GN=NOP53 (Q9NZM5).

The target in experiment [7] is T7, proteins displaced from immobilized biotin-Cmpd 1 pulldowns (U2OS cell lysate) (Homo sapiens, UniProt Q14151).
T7 construct: endogenous in cells; host or cells: U2OS
To be noted: GN=SAFB2 (Q14151).

For experiment [8], the target named is T8, proteins displaced from immobilized biotin-Cmpd 1 pulldowns (U2OS cell lysate) (Homo sapiens, UniProt P38646).
T8 construct: endogenous in cells; host or cells: U2OS
To be noted: GN=HSPA9 (P38646).

The target of experiment [9] is T9, proteins displaced from immobilized biotin-Cmpd 1 pulldowns (U2OS cell lysate) (Homo sapiens, UniProt P46783).
T9 construct: endogenous in cells; host or cells: U2OS
To be noted: GN=RPS10 (P46783).

The target in experiment [10] is T10, proteins displaced from immobilized biotin-Cmpd 1 pulldowns (U2OS cell lysate) (Homo sapiens, UniProt Q13601).
T10 construct: endogenous in cells; host or cells: U2OS
To be noted: GN=KRR1 (Q13601).

T7 sequence (Q14151 whole entry): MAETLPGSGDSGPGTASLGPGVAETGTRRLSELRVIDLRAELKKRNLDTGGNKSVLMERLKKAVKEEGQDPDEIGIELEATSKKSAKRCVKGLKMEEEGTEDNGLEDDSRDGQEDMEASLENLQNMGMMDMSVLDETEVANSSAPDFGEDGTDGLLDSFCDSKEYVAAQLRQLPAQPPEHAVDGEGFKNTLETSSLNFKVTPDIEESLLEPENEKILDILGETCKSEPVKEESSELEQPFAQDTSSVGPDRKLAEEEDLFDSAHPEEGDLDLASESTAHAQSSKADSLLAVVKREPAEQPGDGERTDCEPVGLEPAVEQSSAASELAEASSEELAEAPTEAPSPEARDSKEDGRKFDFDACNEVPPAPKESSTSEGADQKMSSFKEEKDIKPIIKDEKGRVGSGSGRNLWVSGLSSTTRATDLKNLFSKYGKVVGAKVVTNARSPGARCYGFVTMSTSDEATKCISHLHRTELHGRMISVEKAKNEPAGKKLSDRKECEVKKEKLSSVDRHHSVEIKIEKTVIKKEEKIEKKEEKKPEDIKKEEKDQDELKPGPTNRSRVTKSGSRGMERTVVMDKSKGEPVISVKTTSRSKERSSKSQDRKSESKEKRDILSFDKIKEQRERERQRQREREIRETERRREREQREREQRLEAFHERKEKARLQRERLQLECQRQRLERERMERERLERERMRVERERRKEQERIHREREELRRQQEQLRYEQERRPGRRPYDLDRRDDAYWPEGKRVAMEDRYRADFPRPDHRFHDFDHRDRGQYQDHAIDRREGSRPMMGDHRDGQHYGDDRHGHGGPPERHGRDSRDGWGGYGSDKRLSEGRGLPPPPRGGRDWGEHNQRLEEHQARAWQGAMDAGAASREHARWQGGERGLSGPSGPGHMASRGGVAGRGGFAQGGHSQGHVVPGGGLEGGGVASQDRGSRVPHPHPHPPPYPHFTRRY
T2 sequence (P06733 whole entry): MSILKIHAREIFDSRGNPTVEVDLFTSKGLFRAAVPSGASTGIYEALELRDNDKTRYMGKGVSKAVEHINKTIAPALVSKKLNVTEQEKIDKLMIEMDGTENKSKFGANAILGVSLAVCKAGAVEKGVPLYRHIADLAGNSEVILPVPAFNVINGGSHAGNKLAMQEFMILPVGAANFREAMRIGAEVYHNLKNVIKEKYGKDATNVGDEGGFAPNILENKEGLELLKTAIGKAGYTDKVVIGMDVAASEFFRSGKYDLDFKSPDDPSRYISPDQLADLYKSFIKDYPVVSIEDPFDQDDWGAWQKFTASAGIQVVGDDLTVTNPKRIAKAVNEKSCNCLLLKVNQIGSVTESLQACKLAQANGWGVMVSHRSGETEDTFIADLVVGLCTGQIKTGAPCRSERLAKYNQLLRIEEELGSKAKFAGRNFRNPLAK
T3 sequence (Q6UWP8 26-590): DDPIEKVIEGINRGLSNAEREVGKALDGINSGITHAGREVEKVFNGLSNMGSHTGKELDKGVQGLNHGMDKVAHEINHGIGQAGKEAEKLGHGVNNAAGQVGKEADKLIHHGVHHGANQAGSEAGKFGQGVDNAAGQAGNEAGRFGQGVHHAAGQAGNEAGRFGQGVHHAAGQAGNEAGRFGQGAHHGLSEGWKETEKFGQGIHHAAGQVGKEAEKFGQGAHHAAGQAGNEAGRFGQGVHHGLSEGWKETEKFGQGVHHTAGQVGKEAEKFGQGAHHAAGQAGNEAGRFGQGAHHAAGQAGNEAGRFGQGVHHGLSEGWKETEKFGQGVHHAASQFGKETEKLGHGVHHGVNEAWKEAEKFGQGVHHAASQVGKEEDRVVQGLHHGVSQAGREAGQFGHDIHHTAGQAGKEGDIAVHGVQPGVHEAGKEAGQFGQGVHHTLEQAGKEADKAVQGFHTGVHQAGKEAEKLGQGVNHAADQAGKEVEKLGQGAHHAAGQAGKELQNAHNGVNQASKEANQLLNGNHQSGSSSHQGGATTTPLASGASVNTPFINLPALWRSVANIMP
T10 sequence (Q13601 whole entry): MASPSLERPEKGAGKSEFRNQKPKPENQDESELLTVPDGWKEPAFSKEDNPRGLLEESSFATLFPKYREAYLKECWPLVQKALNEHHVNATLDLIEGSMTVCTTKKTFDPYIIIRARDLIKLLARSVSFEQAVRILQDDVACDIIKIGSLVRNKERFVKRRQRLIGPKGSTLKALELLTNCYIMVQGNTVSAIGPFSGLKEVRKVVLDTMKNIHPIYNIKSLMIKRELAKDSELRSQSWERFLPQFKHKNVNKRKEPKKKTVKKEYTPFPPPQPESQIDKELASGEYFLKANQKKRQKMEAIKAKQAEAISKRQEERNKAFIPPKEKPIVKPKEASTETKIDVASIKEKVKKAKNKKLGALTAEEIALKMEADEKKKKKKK
T5 sequence (Q04837 17-148): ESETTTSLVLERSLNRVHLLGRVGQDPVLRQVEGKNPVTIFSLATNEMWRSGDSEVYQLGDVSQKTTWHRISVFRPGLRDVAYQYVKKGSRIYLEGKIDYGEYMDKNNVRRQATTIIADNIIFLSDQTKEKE
T4 sequence (P05089 whole entry): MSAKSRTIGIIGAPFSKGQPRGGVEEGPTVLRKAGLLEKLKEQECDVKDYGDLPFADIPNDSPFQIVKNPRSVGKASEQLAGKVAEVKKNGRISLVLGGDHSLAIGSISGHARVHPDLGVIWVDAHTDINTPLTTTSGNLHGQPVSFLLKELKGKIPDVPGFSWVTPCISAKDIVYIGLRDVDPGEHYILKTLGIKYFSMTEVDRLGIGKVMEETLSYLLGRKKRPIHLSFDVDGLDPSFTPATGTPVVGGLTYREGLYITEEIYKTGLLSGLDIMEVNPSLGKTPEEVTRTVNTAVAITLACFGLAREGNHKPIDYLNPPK
T8 sequence (P38646 47-679): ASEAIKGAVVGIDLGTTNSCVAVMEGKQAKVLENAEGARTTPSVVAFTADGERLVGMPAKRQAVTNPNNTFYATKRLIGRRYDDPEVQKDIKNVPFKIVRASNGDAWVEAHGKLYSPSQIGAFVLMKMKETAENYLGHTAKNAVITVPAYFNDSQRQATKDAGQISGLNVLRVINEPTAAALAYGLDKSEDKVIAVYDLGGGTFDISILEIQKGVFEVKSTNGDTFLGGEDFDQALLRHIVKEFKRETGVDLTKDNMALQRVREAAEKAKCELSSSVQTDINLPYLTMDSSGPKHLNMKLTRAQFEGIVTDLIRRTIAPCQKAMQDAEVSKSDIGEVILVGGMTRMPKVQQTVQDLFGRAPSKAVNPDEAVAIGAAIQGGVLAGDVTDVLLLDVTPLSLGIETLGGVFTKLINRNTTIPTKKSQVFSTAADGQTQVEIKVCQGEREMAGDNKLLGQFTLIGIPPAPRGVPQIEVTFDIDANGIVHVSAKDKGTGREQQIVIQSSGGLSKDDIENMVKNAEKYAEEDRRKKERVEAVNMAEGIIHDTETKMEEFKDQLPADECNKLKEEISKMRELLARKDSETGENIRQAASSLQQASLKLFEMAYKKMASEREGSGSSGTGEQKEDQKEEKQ

In the case of `Cn1c2c(c(=N)c3c1CCC3)CCC2` [Compound 1, 4-methyl-2,3,4,5,6,7-hexahydrodicyclopenta[b,e]pyridin-8(1H)-imine], the Difference in experiment [1] (Cmpd minus DMSO, -LOG(P-value) 0.745191) is given as 1.429; in experiment [2] (Cmpd minus DMSO, -LOG(P-value) 1.38674) it was -0.4405; in [3] (Cmpd minus DMSO, -LOG(P-value) 0.819941) it was -1.912; in [4] (Cmpd minus DMSO, -LOG(P-value) 0.796604) it was -1.277; in experiment [5] (Cmpd minus DMSO, -LOG(P-value) 1.29916) it was 1.094; in [6] (Cmpd minus DMSO, -LOG(P-value) 0.867991), 2.66. In addition, the Difference in [7] (Cmpd minus DMSO, -LOG(P-value) 1.24711) is given as 1.435; in experiment [8] (Cmpd minus DMSO, -LOG(P-value) 0.718324) it was 0.7463; in experiment [9] (Cmpd minus DMSO, -LOG(P-value) 0.711634) it was 0.8419; in [10] (Cmpd minus DMSO, -LOG(P-value) 0.80089) it was 1.298. Also, the “iBAQ Cmpd” value in [1] (replicates 1-3) was 17.7953 and 15.5869 and 17.7004; in experiment [2] (replicates 1-3), 21.5649 and 21.7568 and 21.506; in experiment [3] (replicates 1-3) it was 15.6356 and 17.305 and 16.0247; in [4] (replicates 1-3), 21.3858 and 21.3863 and 20.4096; in experiment [5] (replicates 1-3), 21.1032 and 19.9004 and 20.5342; in experiment [6] (replicates 1-3) it was 18.4766 and 17.8155 and 17.9258. The “iBAQ Cmpd” value is 18.2139 and 16.8013 and 17.9077 in experiment [7] (replicates 1-3); 19.8777 and 19.6433 and 19.5335 in experiment [8] (replicates 1-3); 20.3934 and 20.6157 and 19.9486 in experiment [9] (replicates 1-3); 17.9419 and 17.334 and 17.0379 in experiment [10] (replicates 1-3).
